# Test results reported in PubChem BioAssay (NCI).
#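 48-hour exposure; five concentrations; linearly interpolated endpoints. GI50 = concentration required for 50% inhibition of growth. At the TGI there is no net growth.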
# What was measured:
# Test in all cases: inhibition of tumour cell growth, NCI panel, 48 h
# MCF7 breast = test system: MCF7 breast
# U251 CNS = test system: U251 CNS
# SF-268 CNS = test system: SF-268 CNS
# NCI-H460 lung = test system: NCI-H460 lung
# A498 renal = test system: A498 renal
# MDA-MB-468 breast = test system: MDA-MB-468 breast
# PC-3 prostate = test system: PC-3 prostate
# OVCAR-8 ovarian = test system: OVCAR-8 ovarian
# SN12C renal = test system: SN12C renal
# NCI-H23 lung = test system: NCI-H23 lung
# HL-60(TB) leukemia = test system: HL-60(TB) leukemia
# OVCAR-3 ovarian = test system: OVCAR-3 ovarian
# NCI-H226 lung = test system: NCI-H226 lung
# M14 melanoma = test system: M14 melanoma
# LOX IMVI melanoma = test system: LOX IMVI melanoma
# SK-MEL-2 melanoma = test system: SK-MEL-2 melanoma
# MDA-MB-231 breast = test system: MDA-MB-231 breast
# TK-10 renal = test system: TK-10 renal
# CCRF-CEM leukemia = test system: CCRF-CEM leukemia
# OVCAR-5 ovarian = test system: OVCAR-5 ovarian
# HCC-2998 colon = test system: HCC-2998 colon
# HS 578T breast = test system: HS 578T breast
# KM12 colon = test system: KM12 colon
# RPMI-8226 leukemia = test system: RPMI-8226 leukemia
# EKVX NSCLC = test system: EKVX NSCLC
# MALME-3M melanoma = test system: MALME-3M melanoma
# SK-MEL-5 melanoma = test system: SK-MEL-5 melanoma
# SNB-75 CNS = test system: SNB-75 CNS
# UACC-257 melanoma = test system: UACC-257 melanoma
# IGROV1 ovarian = test system: IGROV1 ovarian
# MDA-MB-435 = test system: MDA-MB-435
# DU-145 prostate = test system: DU-145 prostate
# SNB-19 CNS = test system: SNB-19 CNS
# UACC-62 melanoma = test system: UACC-62 melanoma
# HOP-62 NSCLC = test system: HOP-62 NSCLC
# T-47D breast = test system: T-47D breast
# COLO 205 colon = test system: COLO 205 colon
# K-562 leukemia = test system: K-562 leukemia
# SF-539 CNS = test system: SF-539 CNS
# HOP-92 NSCLC = test system: HOP-92 NSCLC
# SF-295 CNS = test system: SF-295 CNS
# 786-0 renal = test system: 786-0 renal
# A549 NSCLC = test system: A549 NSCLC
# SW-620 colon = test system: SW-620 colon
# HCT-15 colon = test system: HCT-15 colon
# HCT-116 colon = test system: HCT-116 colon
# BT-549 breast = test system: BT-549 breast
# SK-OV-3 ovarian = test system: SK-OV-3 ovarian
# ACHN renal = test system: ACHN renal
# NCI-H522 lung = test system: NCI-H522 lung
# NCI/ADR-RES ovarian = test system: NCI/ADR-RES ovarian
# OVCAR-4 ovarian = test system: OVCAR-4 ovarian
# RXF 393 renal = test system: RXF 393 renal
compound,measurement,setting,value
ClC(Cn1ncc2c(Nc3cccc(Br)c3)nc(SCCN3CCOCC3)nc21)c1ccc(Br)cc1 (stereo unspecified),GI50,MCF7 breast,2.77 µM
same,TGI,MCF7 breast,24.6 µM
same,GI50,U251 CNS,3.34 µM
same,TGI,U251 CNS,41.3 µM
same,GI50,SF-268 CNS,6.94 µM
same,TGI,SF-268 CNS,> 100 µM
same,GI50,NCI-H460 lung,3.55 µM
same,TGI,NCI-H460 lung,> 100 µM
same,GI50,A498 renal,6.37 µM
same,TGI,A498 renal,35.2 µM
same,GI50,MDA-MB-468 breast,2.52 µM
same,TGI,MDA-MB-468 breast,6.89 µM
same,GI50,PC-3 prostate,3.77 µM
same,TGI,PC-3 prostate,> 100 µM
same,GI50,OVCAR-8 ovarian,6.5 µM
same,TGI,OVCAR-8 ovarian,> 100 µM
same,GI50,SN12C renal,6.47 µM
same,TGI,SN12C renal,> 100 µM
same,GI50,NCI-H23 lung,3.46 µM
same,TGI,NCI-H23 lung,18.6 µM
same,GI50,HL-60(TB) leukemia,3.03 µM
same,TGI,HL-60(TB) leukemia,> 100 µM
same,GI50,OVCAR-3 ovarian,10.3 µM
same,TGI,OVCAR-3 ovarian,60 µM
same,GI50,NCI-H226 lung,9.32 µM
same,TGI,NCI-H226 lung,71.6 µM
same,GI50,M14 melanoma,2.5 µM
same,TGI,M14 melanoma,8.72 µM
same,GI50,LOX IMVI melanoma,1.74 µM
same,TGI,LOX IMVI melanoma,3.24 µM
same,GI50,SK-MEL-2 melanoma,4.62 µM
same,TGI,SK-MEL-2 melanoma,24.5 µM
same,GI50,MDA-MB-231 breast,2.25 µM
same,TGI,MDA-MB-231 breast,4.66 µM
same,GI50,TK-10 renal,13.6 µM
same,TGI,TK-10 renal,> 100 µM
same,GI50,CCRF-CEM leukemia,2.17 µM
same,TGI,CCRF-CEM leukemia,10.1 µM
same,GI50,OVCAR-5 ovarian,5.24 µM
same,TGI,OVCAR-5 ovarian,30.3 µM
same,GI50,HCC-2998 colon,3.8 µM
same,TGI,HCC-2998 colon,60 µM
same,GI50,HS 578T breast,2.44 µM
same,TGI,HS 578T breast,7.88 µM
same,GI50,KM12 colon,2.72 µM
same,TGI,KM12 colon,7.36 µM
same,GI50,RPMI-8226 leukemia,2.03 µM
same,TGI,RPMI-8226 leukemia,4.59 µM
same,GI50,EKVX NSCLC,5.01 µM
same,TGI,EKVX NSCLC,> 100 µM
same,GI50,MALME-3M melanoma,1.81 µM
same,TGI,MALME-3M melanoma,3.53 µM
same,GI50,SK-MEL-5 melanoma,2.07 µM
same,TGI,SK-MEL-5 melanoma,4.47 µM
same,GI50,SNB-75 CNS,2.57 µM
same,TGI,SNB-75 CNS,24.3 µM
same,GI50,UACC-257 melanoma,2.82 µM
same,TGI,UACC-257 melanoma,9.84 µM
same,GI50,IGROV1 ovarian,8 µM
same,TGI,IGROV1 ovarian,> 100 µM
same,GI50,MDA-MB-435,3.89 µM
same,TGI,MDA-MB-435,21.5 µM
same,GI50,DU-145 prostate,15.1 µM
same,TGI,DU-145 prostate,> 100 µM
same,GI50,SNB-19 CNS,5.14 µM
same,TGI,SNB-19 CNS,> 100 µM
same,GI50,UACC-62 melanoma,2.23 µM
same,TGI,UACC-62 melanoma,4.75 µM
same,GI50,HOP-62 NSCLC,3.71 µM
same,TGI,HOP-62 NSCLC,22.4 µM
same,GI50,T-47D breast,3.47 µM
same,TGI,T-47D breast,> 100 µM
same,GI50,COLO 205 colon,1.98 µM
same,TGI,COLO 205 colon,4.48 µM
same,GI50,K-562 leukemia,2.84 µM
same,TGI,K-562 leukemia,26.2 µM
same,GI50,SF-539 CNS,1.79 µM
same,TGI,SF-539 CNS,3.48 µM
same,GI50,HOP-92 NSCLC,3.5 µM
same,TGI,HOP-92 NSCLC,23.9 µM
same,GI50,SF-295 CNS,1.78 µM
same,TGI,SF-295 CNS,3.57 µM
same,GI50,786-0 renal,1.76 µM
same,TGI,786-0 renal,3.35 µM
same,GI50,A549 NSCLC,4.93 µM
same,TGI,A549 NSCLC,> 100 µM
same,GI50,SW-620 colon,2.76 µM
same,TGI,SW-620 colon,12.6 µM
same,GI50,HCT-15 colon,1.65 µM
same,TGI,HCT-15 colon,3.8 µM
same,GI50,HCT-116 colon,3.09 µM
same,TGI,HCT-116 colon,> 100 µM
same,GI50,BT-549 breast,11.7 µM
same,TGI,BT-549 breast,27.9 µM
same,GI50,SK-OV-3 ovarian,6.46 µM
same,TGI,SK-OV-3 ovarian,> 100 µM
same,GI50,ACHN renal,4.38 µM
same,TGI,ACHN renal,> 100 µM
same,GI50,NCI-H522 lung,2.87 µM
same,TGI,NCI-H522 lung,9.33 µM
same,GI50,NCI/ADR-RES ovarian,3.89 µM
same,TGI,NCI/ADR-RES ovarian,97.5 µM
same,GI50,OVCAR-4 ovarian,6.42 µM
same,TGI,OVCAR-4 ovarian,> 100 µM
same,GI50,RXF 393 renal,1.69 µM
same,TGI,RXF 393 renal,4.49 µM
